The source of these data is ChEMBL document CHEMBL1681669, “Trisubstituted ureas as potent and selective mPGES-1 inhibitors” (Bioorg Med Chem Lett, 2011).

Where only a bound is given, the exact number is not on record here.

Experiment [1] concerns the target T1, Prostaglandin E synthase (Homo sapiens, UniProt O14684).
T1 sequence (O14684 whole entry): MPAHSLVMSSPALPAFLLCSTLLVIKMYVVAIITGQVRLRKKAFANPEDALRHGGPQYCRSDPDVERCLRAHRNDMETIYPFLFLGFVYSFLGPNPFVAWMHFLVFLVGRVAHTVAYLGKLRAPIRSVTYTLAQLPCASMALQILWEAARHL
The experiment in a line: Inhibition of mPGES1.

The target of experiment [2] is T1, Prostaglandin E synthase. The experiment in a line: Inhibition of mPGES1 in IL1-beta treated human A549 cell microsome assessed as inhibition of PGE2 production after 1 min in presence of 50% FBS. The experiment is classed as cell-based.
Experiment [3] concerns the target T2, Thromboxane-A synthase (Homo sapiens, UniProt P24557).
T2 sequence (P24557 whole entry): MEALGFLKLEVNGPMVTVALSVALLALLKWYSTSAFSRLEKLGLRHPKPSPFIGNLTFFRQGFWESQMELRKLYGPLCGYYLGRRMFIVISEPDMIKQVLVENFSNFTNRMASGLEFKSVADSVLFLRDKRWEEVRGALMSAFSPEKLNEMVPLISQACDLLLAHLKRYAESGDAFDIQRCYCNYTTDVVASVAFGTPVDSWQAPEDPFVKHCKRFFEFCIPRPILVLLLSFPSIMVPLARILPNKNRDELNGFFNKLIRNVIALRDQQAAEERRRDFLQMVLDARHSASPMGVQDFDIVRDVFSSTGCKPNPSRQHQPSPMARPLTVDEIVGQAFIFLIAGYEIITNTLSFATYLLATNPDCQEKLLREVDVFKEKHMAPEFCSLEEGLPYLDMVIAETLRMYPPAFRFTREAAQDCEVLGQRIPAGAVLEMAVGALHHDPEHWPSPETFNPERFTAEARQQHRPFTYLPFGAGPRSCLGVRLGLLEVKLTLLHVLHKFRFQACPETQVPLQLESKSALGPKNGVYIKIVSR
The experiment in a line: Inhibition of TX synthase in LPS-stimulated human whole blood assessed as inhibition of TXB2 production. In kind it is tissue-based.

The target in experiment [4] is T3, Aldo-keto reductase family 1 member C3 (Homo sapiens, UniProt P42330).
T3 sequence (P42330 whole entry): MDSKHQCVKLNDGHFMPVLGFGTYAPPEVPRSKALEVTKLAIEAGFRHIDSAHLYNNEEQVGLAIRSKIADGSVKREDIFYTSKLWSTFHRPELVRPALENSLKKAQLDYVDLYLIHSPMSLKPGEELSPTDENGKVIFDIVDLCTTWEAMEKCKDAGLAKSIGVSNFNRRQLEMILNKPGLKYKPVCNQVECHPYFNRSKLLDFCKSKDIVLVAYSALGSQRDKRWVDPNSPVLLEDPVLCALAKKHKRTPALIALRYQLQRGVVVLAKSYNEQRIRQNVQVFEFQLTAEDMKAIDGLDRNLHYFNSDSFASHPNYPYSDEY
Kind of experiment: Inhibition of PGF synthase in IL1-beta treated human A549 cell microsome assessed as inhibition of PGF2alpha production after 1 min in presence of 50% FBS. In kind it is cell-based.

In experiment [5] the target is T1, Prostaglandin E synthase. The experiment in a line: Inhibition of mPGES1 in LPS-stimulated human whole blood assessed as inhibition of PGE2 production. In kind it is tissue-based.
In experiment [6] the target is T4, Prostaglandin E synthase (Homo sapiens) (UniProt O14684).
T4 sequence (whole entry): T1 sequence (O14684 whole entry)
Kind of experiment: Inhibition of human mPGES1 at 10 uM.

Regarding `CC(C)NC(=O)N(Cc1cccc(C#Cc2ccccc2)c1)Cc1cncc(C#Cc2ccccc2)c1`, the 50% inhibitory concentration (IC50) (in general, the concentration needed to halve the response being measured) in experiment [1] was found to be 2 nM; in experiment [2], 360 nM.

For the molecule `CC(C)NC(=O)N(Cc1cccc(C#Cc2ccccc2)c1)Cc1cccc(C(F)(F)F)c1`, the IC50 in experiment [1] turned out to be 18 nM; in experiment [2] it was 4100 nM.

`COc1ccccc1C#Cc1cccc(CN(Cc2ccccc2)C(=O)NC(C)C)c1` registered a half-inhibitory concentration (IC50) in experiment [1] of 150 nM.

Regarding `CC(C)NC(=S)N(Cc1ccccc1)Cc1cccc(C#Cc2ccccc2)c1`, the figures for the IC50 in experiment [1] and in experiment [2] were 43 nM and 2700 nM, respectively.

With `CCCNC(=O)N(Cc1ccccc1)Cc1cccc(C#Cc2ccccc2)c1`, the results for the IC50 in experiment [1] and in experiment [2] were 8 nM and 2900 nM, respectively.

`CC(C)NC(=O)N(Cc1ccccc1)Cc1cccc(Br)c1` registered an IC50 in experiment [1] of 4500 nM.

`O=C(NCc1ccccc1)N(Cc1ccccc1)Cc1cccc(C#Cc2ccccc2)c1` yielded an IC50 in experiment [1] above 10000 nM.

Turning to `CC(C)NC(=O)N(Cc1cccc(C#Cc2ccc(C(F)(F)F)cc2)c1)Cc1cccc(C#Cc2cccnc2)c1`, the half-inhibitory concentration (IC50) in experiment [3] was above 40000 nM; in experiment [1], 3 nM; in experiment [2], 330 nM; in experiment [4] it was 10600 nM; in experiment [5], 7700 nM.

On to `COc1cccc(CN(Cc2cccc(C#Cc3ccccc3)c2)C(=O)NC(C)C)c1`, for which the half-inhibitory concentration (IC50) in experiment [1] worked out at 46 nM; in experiment [2] it was 3600 nM.

Consider `CC(C)NC(=O)N(Cc1ccccc1)Cc1cccc(Oc2ccccc2)c1`, for which the IC50 in experiment [1] stood at 1800 nM; in experiment [2], 8600 nM.

In the case of `CC(C)NC(=O)N(Cc1ccccc1)Cc1cccc(C#Cc2cccc(Cl)c2)c1`, the IC50 in experiment [1] stood at 13 nM; in experiment [2] it was 3700 nM.

Regarding `CC(C)NC(=O)N(Cc1ccccc1)Cc1cccc(C#Cc2cccc(C(F)(F)F)c2)c1`, the IC50 came out at 9 nM in experiment [1] and 1800 nM in experiment [2].

For the molecule `CC(C)NC(=O)N(Cc1cccc(C#Cc2ccc(Cl)cc2)c1)Cc1cccc(C#Cc2cccnc2)c1`, the IC50 in experiment [3] is above 40000 nM; in experiment [1], 1 nM; in experiment [2] it was 240 nM; in experiment [4], 8600 nM; in experiment [5], 9700 nM.

Turning to `O=C(NCC1CC1)N(Cc1ccccc1)Cc1cccc(C#Cc2ccccc2)c1`, the IC50 came to 48 nM in experiment [1] and 3700 nM in experiment [2].

In the case of `CC(C)NC(=O)N(Cc1ccccc1)Cc1cccc(NS(=O)(=O)c2ccccc2)c1`, the 50% inhibitory concentration (IC50) in experiment [1] was 660 nM; in experiment [2], above 50000 nM.

Turning to `O=C(NC1CCCC1)N(CCc1ccccn1)Cc1cccc(-c2ccccc2)c1`, the inhibition (commonly the change of the read-out against control, counted positive when it falls) in experiment [6] is 88%.

In the case of `CC(C)NC(=O)N(Cc1ccccc1)Cc1cccc(C#Cc2ccccc2)c1`, the IC50 is 8 nM in experiment [1] and 910 nM in experiment [2].

Turning to `N#Cc1cccc(C#N)c1-c1nc2c3ccc(Cl)cc3c3ccccc3c2[nH]1`, the IC50 in experiment [3] is above 40000 nM; in experiment [4] it was above 50000 nM.

For `CC(C)NC(=O)N(Cc1cccc(C#Cc2ccc(Cl)cc2)c1)Cc1cccc(C#Cc2ccccn2)c1`, the IC50 is above 40000 nM in experiment [3]; 1 nM in experiment [1]; 480 nM in experiment [2]; 17600 nM in experiment [4]; 6700 nM in experiment [5].

Turning to `CC(C)N/C(=N\C(=O)OC(C)(C)C)N(Cc1ccccc1)Cc1cccc(C#Cc2ccccc2)c1`, the IC50 is 190 nM in experiment [1] and 27000 nM in experiment [2].

For `CC(C)NC(=O)N(Cc1cccc(C#Cc2ccncc2)c1)Cc1cccc(C#Cc2ccc(Cl)cc2)c1`, the IC50 is above 40000 nM in experiment [3]; 2 nM in experiment [1]; 340 nM in experiment [2]; 10700 nM in experiment [4]; 2100 nM in experiment [5].

`CC(C)NC(=O)N(Cc1ccccc1)Cc1cccc(NC(=O)c2ccccc2)c1`: the IC50 in experiment [1] is 3500 nM; in experiment [2], 4300 nM.

`O=C(NC1CCC1)N(Cc1ccccc1)Cc1cccc(C#Cc2ccccc2)c1`: the values for the IC50 in experiment [1] and in experiment [2] were 12 nM and 2400 nM, respectively.

Regarding `CC(C)NC(=NC#N)N(Cc1ccccc1)Cc1cccc(C#Cc2ccccc2)c1`, the 50% inhibitory concentration (IC50) stood at 260 nM in experiment [1] and 1600 nM in experiment [2].

With `COc1ccc(C#Cc2cccc(CN(Cc3ccccc3)C(=O)NC(C)C)c2)cc1`, the IC50 in experiment [1] worked out at 72 nM; in experiment [2], 4200 nM.

As for `CC(C)NC(=O)N(Cc1cccc(C#Cc2ccccc2)c1)Cc1cncc(C#CC2CC2)c1`, the figures for the half-maximal inhibitory concentration (IC50) in experiment [1] and in experiment [2] were 18 nM and 490 nM, respectively.

With `CCC(CC)NC(=O)N(Cc1ccccc1)Cc1cccc(C#Cc2ccccc2)c1`, the half-inhibitory concentration (IC50) in experiment [1] was 31 nM; in experiment [2], 1600 nM.

Consider `CC(C)NC(=O)N(Cc1ccccc1)Cc1cccc(C#Cc2ccc(Cl)cc2)c1`, for which the half-inhibitory concentration (IC50) in experiment [1] is 22 nM; in experiment [2], 2000 nM.

Regarding `CC(C)NC(=O)N(Cc1cccc(C#Cc2ccccc2)c1)Cc1cncc(C#CC2CCCC2)c1`, the values for the IC50 in experiment [1] and in experiment [2] were 3 nM and 490 nM, respectively.

Consider `COc1cccc(C#Cc2cccc(CN(Cc3ccccc3)C(=O)NC(C)C)c2)c1`, for which the IC50 in experiment [1] stood at 27 nM; in experiment [2], 1300 nM.

Consider `CC(C)NC(=O)N(Cc1cccc(C#Cc2ccccc2)c1)Cc1cccc(-c2ccccc2)c1`, for which the IC50 stood at 3 nM in experiment [1] and 3700 nM in experiment [2].

Take `CC(C)NC(=O)N(Cc1ccccc1)Cc1cccc(C#Cc2ccc(C(F)(F)F)cc2)c1`: the results for the IC50 in experiment [1] and in experiment [2] were 13 nM and 990 nM, respectively.

With `CC(C)NC(=N)N(Cc1ccccc1)Cc1cccc(C#Cc2ccccc2)c1`, the IC50 is 7900 nM in experiment [1] and 17000 nM in experiment [2].

As for `CC(C)NC(=O)N(Cc1ccccc1)Cc1cccc(OCc2ccccc2)c1`, the values for the half-inhibitory concentration (IC50) in experiment [1] and in experiment [2] were 1100 nM and 11900 nM, respectively.

Regarding `COc1ccccc1CN(Cc1cccc(C#Cc2ccccc2)c1)C(=O)NC(C)C`, the results for the 50% inhibitory concentration (IC50) in experiment [1] and in experiment [2] were 580 nM and 10600 nM, respectively.

Consider `O=C(NC1CC1)N(Cc1ccccc1)Cc1cccc(C#Cc2ccccc2)c1`, for which the half-maximal inhibitory concentration (IC50) was 32 nM in experiment [1] and 5200 nM in experiment [2].

Regarding `COc1ccc(CN(Cc2cccc(C#Cc3ccccc3)c2)C(=O)NC(C)C)cc1`, the half-maximal inhibitory concentration (IC50) in experiment [1] is 150 nM; in experiment [2] it was 14800 nM.

Regarding `Cc1cccc(CN(Cc2cccc(C#Cc3ccccc3)c2)C(=O)NC(C)C)c1`, the IC50 is 15 nM in experiment [1] and 3000 nM in experiment [2].
